Patent publication US8940943B2, “Cosmetic preparations” (Cognis IP Management GmbH, priority 2010, dated 2015)

Assays:
human skin [1] = assay: occlusive epicutaneous 24 h patch test (skin compatibility)
Method: The di(2-propylheptyl)ether obtained according to production example 2 was compared in an occlusive epicutaneous 24 h patch test against the commercially available di-n-octyl ether. […] 24 after application the patch was removed, after a further 6 hours the first visual assessment was carried out, further assessments were carried out 24, 48 and 72 hours after the patch was removed.
The assessment was based on a scale from 0 (no reaction) to 4 (strong reaction) in the categories: erythema formation, edema formation, formation of scales (=squamation) and formation of cracks (=fissuration). A so-called total irritation score RSS value was found from the values obtained.

human skin [2] = assay: in-vivo patch test, 24 hours on human skin, skin reddening or irritation; conditions: compared to diethylhexyl ether, water and surfactant solution as negative and positive standards
Method: In an in-vivo patch test, the test substances are applied on human skin and left there for 24 hours. Then an assessment is made with respect to possible occurrence of skin reddening or irritation. As comparison, in each case water and a surfactant solution are tested as negative and positive standards.

Compound	total irritation score RSS (human skin [1]; human, in vivo, 24 h)	skin compatibility (human skin [2])	total irritation score RSS (human skin [1]; 22 test subjects, applied on back, occlusive 24 h patch (Finn Chambers), assessed 6, 24, 48 and 72 h after patch removal, scale 0-4 for erythema, edema, squamation, fissuration)
CCCCCCCCOCCCCCCCC [Di-n-alkyl ether (Cetiol ® OE), di-n-octyl ether]	7.1	–	–
CCCCCC(CCC)COCC(CCC)CCCCC (stereo not shown) [Di(2-propylheptyl)ether]	3.62	improved skin compatibility	–
CCCCCCCCCCCCOS(=O)(=O)[O-].[Na+] [Positive control, sodium dodecyl sulfate]	–	–	7.95
